Results published in patent US8618138B2, “Indole amide derivatives and related compounds for use in the treatment of neurodegenerative diseases” (Katholieke Universiteit Leuven, K.U. Leuven R&D, priority 2009, dated 2013).

tested on: M17-TAU P301L cells; experiment: TAU cytotoxicity assay: LDH leakage of retinoic acid incubated M17-TAU P301L cells; assay type: cell-based, human; settings: Homo sapiens, 168 h, reduction of LDH activity of retinoic acid incubated M17-TAU P301L cells, 7 days
Excerpt: A TAU expression plasmid was constructed by sub-cloning the cDNA of human TAU-P301 L (encoding for TAU with proline 301 substituted by a leucine residue) into mammalian expression vector pcDNA3.1 resulting in plasmid pcDNA3.1-TAU P301L. Plasmids pcDNA3.1 and pcDNA3.1-TAU P301L were transfected to human neuroblastoma cells ([…]; ATCC No. CRL-2267) and independent clonal lines with the plasmids stably integrated into the genome were selected. […] Expression of the TAU P301L genes in the cell lines was confirmed by Western analysis.
In degenerated or dead cells lactate dehydrogenase (LDH) is leaked out of the cells into the extracellular environment due to a loss of plasma-membrane integrity. This principle was used to determine cytotoxicity by quantifying the level of leaked LDH into the growth medium.
The detailed method for determining TAU cytotoxicity was as follows: From appropriate precultures of M17-3.1 and M17-TAU(P301L) cells were seeded at 2500 cells/cm2 in Optimem Reduced Serum without phenol red (Gibco, Cat. 31985-047) supplemented with 1% fetal calf serum, 1 mM sodium pyruvate, 1× non-essential amino acids, 500 μg/ml G418 0.5× antibiotic/antimycotic. After 3 h of incubation at 37° C./5% CO2 1 volume of Optimem Reduced Serum (same as described above; except without fetal calf serum) supplemented with 2.5 μM retinoic acid (RA) was added. The cells were further incubated for 7 days. Subsequently, LDH activity was determined using Promega Cytotox 96 Non-Radioactive cytotoxicity assay, (Cat. G1780) according the supplier's instructions.
The M17-TAU P301L cell line made it possible to assess the ability of novel compounds to counteract TAU cytotoxicity. […] These measurements were used to calculate EC50 values of table 2.
Exemplary compounds of the present invention are shown in table 2, with their chemical name and their EC50 value (expressed in nM) as determined from example 196 in the Tau-induced toxicity experiment.

Structure (SMILES) | EC50 [nM]
Cc1ccccc1Cc1nc(C(=O)NCCc2c[nH]c3ccc(Cl)cc23)no1 [Example D192, N-(2-(5-chloro-1H-indol-3-yl)ethyl)-5-(2-methylbenzyl)-1,2,4-oxadiazole-3-carboxamide] | 53
O=C(NCCc1c[nH]c2ccc(Cl)cc12)c1noc(Cc2cccs2)n1 [Example D180, N-(2-(5-chloro-1H-indol-3-yl)ethyl)-5-(thiophen-2-ylmethyl)-1,2,4-oxadiazole-3-carboxamide] | 103
COc1ccc(Cc2nc(C(=O)NCCc3c[nH]c4ccc(Cl)cc34)no2)cc1OC [Example D178, N-(2-(5-chloro-1H-indol-3-yl)ethyl)-5-(3,4-dimethoxybenzyl)-1,2,4-oxadiazole-3-carboxamide] | 125
CC(C)(C)c1ccc(Cc2nc(C(=O)NCCc3c[nH]c4ccc(Cl)cc34)no2)cc1 [Example D176, 5-(4-tert-butylbenzyl)-N-(2-(5-chloro-1H-indol-3-yl)ethyl)-1,2,4-oxadiazole-3-carboxamide] | 100
N#Cc1ccc2[nH]cc(CCNC(=O)c3cc(Cc4cc(F)ccc4F)on3)c2c1 [Example D137, N-(2-(5-cyano-1H-indol-3-yl)ethyl)-5-(2,5-difluorobenzyl)isoxazole-3-carboxamide] | 32
O=C(c1cc(Cc2cc(F)ccc2F)on1)N1CCC(c2c[nH]c3ccccc23)CC1 [Example D138, (4-(1H-indol-3-yl)piperidin-1-yl)(5-(2,5-difluorobenzyl)isoxazol-3-yl)methanone] | 418
O=C(NCCc1c[nH]c2ccc(Cl)cc12)c1cn(Cc2ccccc2)nn1 [Example D54, 1-benzyl-N-(2-(5-chloro-1H-indol-3-yl)ethyl)-1H-1,2,3-triazole-4-carboxamide] | 173
O=C(NCCc1c[nH]c2ccc(Cl)cc12)c1noc(Cc2c(F)cccc2F)n1 [Example D188, N-(2-(5-chloro-1H-indol-3-yl)ethyl)-5-(2,6-difluorobenzyl)-1,2,4-oxadiazole-3-carboxamide] | 41
O=C(NCCc1c[nH]c2ccc(Cl)cc12)c1cc(Cc2ccoc2)on1 [Example D22, N-(2-(5-chloro-1H-indol-3-yl)ethyl)-5-(furan-3-ylmethyl)isoxazole-3-carboxamide] | 28
COc1cccc(Cc2nc(C(=O)NCCc3c[nH]c4ccc(Cl)cc34)no2)c1 [Example D177, N-(2-(5-chloro-1H-indol-3-yl)ethyl)-5-(3-methoxybenzyl)-1,2,4-oxadiazole-3-carboxamide] | 29
Cc1ccccc1N1CCC(C(=O)NCCc2c[nH]c3ccc(Cl)cc23)C1=O (stereo not shown) [Example D158, N-(2-(5-chloro-1H-indol-3-yl)ethyl)-2-oxo-1-o-tolylpyrrolidine-3-carboxamide] | 1030
Cc1ccc(Nc2nc(C(=O)NCCc3c[nH]c4ccccc34)cs2)cc1 [Example D110, N-(2-(1H-indol-3-yl)ethyl)-2-(p-tolylamino)thiazole-4-carboxamide] | 274
O=C(NCCc1c[nH]c2ccc(Cl)cc12)c1ccnn1-c1ccccc1 [Example D117, N-(2-(5-chloro-1H-indol-3-yl)ethyl)-1-phenyl-1H-pyrazole-5-carboxamide] | 979
O=C(NCCc1c[nH]c2ccc(Cl)cc12)C1CCN(CC2CCCCC2)C1=O (stereo not shown) [Example D164, N-(2-(5-chloro-1H-indol-3-yl)ethyl)-1-(cyclohexylmethyl)-2-oxopyrrolidine-3-carboxamide] | 320
COc1cccc(N2CCC(C(=O)NCCc3c[nH]c4ccc(Cl)cc34)C2=O)c1 (stereo not shown) [Example D162, N-(2-(5-chloro-1H-indol-3-yl)ethyl)-1-(3-methoxyphenyl)-2-oxopyrrolidine-3-carboxamide] | 233
O=C(NCCc1c[nH]c2ccc(Cl)cc12)c1cc(Cc2ccncc2)on1 [Example D41, N-(2-(5-chloro-1H-indol-3-yl)ethyl)-5-(pyridin-4-ylmethyl)isoxazole-3-carboxamide] | 91
